Common to all, as to type: biochemical
The target of experiment [1] is T1, Δ102 HYPE (HYPE103-456) (Homo sapiens, UniProt Q9BVA6).
T1 construct: gene FICD; aa 103-456, lacks TM domain and N-terminus; His6-SUMO tag cleaved by ULP1; pSMT3, E. coli BL21-DE3-RILP; cobalt and size-exclusion purified
T1 sequence (Q9BVA6 103-456): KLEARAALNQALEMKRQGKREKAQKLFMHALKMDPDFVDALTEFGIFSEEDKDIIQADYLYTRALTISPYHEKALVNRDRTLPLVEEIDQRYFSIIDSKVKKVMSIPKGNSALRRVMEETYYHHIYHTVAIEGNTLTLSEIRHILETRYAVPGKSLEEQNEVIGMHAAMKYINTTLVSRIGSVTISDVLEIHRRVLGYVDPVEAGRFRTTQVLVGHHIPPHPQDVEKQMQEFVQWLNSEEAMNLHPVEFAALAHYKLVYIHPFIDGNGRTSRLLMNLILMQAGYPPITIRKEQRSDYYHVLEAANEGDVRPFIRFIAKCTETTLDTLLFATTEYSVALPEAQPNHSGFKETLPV
The experiment can be described thus: fluorescence polarization autoAMPylation with Fl-ATP. To be noted: activator; detergent-less minimal buffer 50 mM HEPES pH 7.5, 1 mM MnCl2, 25 nM Fl-ATP, 0.4 µM enzyme, room temperature; unreliable. The text has this: fluorescence polarization autoAMPylation with Fl-ATP on Δ102 HYPE (HYPE103-456) | robust dose-dependencies among all activators, with low micromolar EC50 values

For another experiment, the target named is T2, Δ45 HYPE (Homo sapiens, UniProt Q9BVA6).
T2 construct: gene FICD; aa 46-456, TM domain deleted; His6-SUMO tag cleaved by ULP1; pSMT3, E. coli BL21-DE3-RILP; cobalt and size-exclusion purified
T2 sequence (Q9BVA6 46-456): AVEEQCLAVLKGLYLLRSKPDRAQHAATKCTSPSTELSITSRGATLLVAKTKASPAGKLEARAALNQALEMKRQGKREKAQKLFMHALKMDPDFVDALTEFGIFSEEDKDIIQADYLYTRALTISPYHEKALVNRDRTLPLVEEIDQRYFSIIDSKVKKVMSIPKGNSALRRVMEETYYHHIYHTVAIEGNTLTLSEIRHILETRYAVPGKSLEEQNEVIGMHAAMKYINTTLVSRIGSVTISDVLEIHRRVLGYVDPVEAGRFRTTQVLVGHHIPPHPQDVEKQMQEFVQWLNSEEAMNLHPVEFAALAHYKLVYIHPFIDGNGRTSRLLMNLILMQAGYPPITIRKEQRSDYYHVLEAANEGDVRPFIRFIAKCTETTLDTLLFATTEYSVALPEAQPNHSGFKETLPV
Put plainly: in-gel fluorescence autoAMPylation with Fl-ATP. To be noted: activator; same, with 0.1% Triton X-100.

Experiment [2] has as its target T3, Δ102 HYPE (HYPE103-456) (Homo sapiens, UniProt Q9BVA6, E234G).
T3 construct: gene FICD; aa 103-456, lacks TM domain and N-terminus; His6-SUMO tag cleaved by ULP1; pSMT3, E. coli BL21-DE3-RILP; cobalt and size-exclusion purified
T3 sequence (Q9BVA6 103-456 E234G): T1 sequence (Q9BVA6 103-456) with E132G
Put plainly: fluorescence polarization autoAMPylation with Fl-ATP. The text has this:
fluorescence polarization autoAMPylation with Fl-ATP on Δ102 HYPE (HYPE103-456) | I1 and I3 were in the mid-micromolar range | we obtained a low micromolar inhibitory potency for I2

The structures appear in SMILES notation. Numbering of substitutions follows the chain as printed.

`CCCCCCCCCCCCCCCC(O)C(N)CO` (racemic) [A2, DL-erythro-dihydrosphingosine] showed a concentration giving a half-maximal response (EC50) on Δ102 HYPE (HYPE103-456) [1] of 15.415 µM.

`CCCCC(CC)CN1CN(CC(CC)CCCC)CC(C)(N)C1` (stereo not shown) [A3, Hexetidine] had a concentration for a half-maximal effect (EC50) on Δ102 HYPE (HYPE103-456) [1] of 13.144 µM.

`CCCCCCCCCCCCCCCC[N+](C)(C)CCN(Cc1ccc(OC)cc1)c1ncccn1` [A5, Thonzonium Bromide] yielded an EC50 on Δ102 HYPE (HYPE103-456) [1] of 10.305 µM.

On to `CC(C)(C)c1ccc(-c2cc(C[C@H]3CNCC[C@H]3CC(=O)N3CCN(c4ccc(F)cc4)CC3)no2)cc1` [A6, NAT14–350426], for which the “in-gel fluorescence autoAMPylation with Fl-ATP” value on Δ45 HYPE was “significant increase in bioactivity of A1 and A4–A6 (Figure 9D)”. Turning to `Cc1cc(-c2ccc(N=Nc3ccc4c(S(=O)(=O)O)cc(S(=O)(=O)O)c(N)c4c3O)c(C)c2)ccc1N=Nc1ccc2c(S(=O)(=O)O)cc(S(=O)(=O)O)c(N)c2c1O` [I1, Evan’s Blue], on Δ102 HYPE (HYPE103-456) [2], the half-maximal inhibitory concentration (IC50) came out at 30.4 µM. Still for that read-out and setting: as for `O=C(O)C1=CC(=C(c2ccc(O)c(C(=O)O)c2)c2ccc(O)c(C(=O)O)c2)C=CC1=O` [I2, Aurintricarboxylic Acid], the figure is 0.347 µM; as for `COc1cc(-c2ccc(N=Nc3ccc4c(S(=O)(=O)O)cc(S(=O)(=O)O)c(N)c4c3O)c(OC)c2)ccc1N=Nc1ccc2c(S(=O)(=O)O)cc(S(=O)(=O)O)c(N)c2c1O` [I3, Chicago Sky Blue], 22.5 µM.

The values are drawn from article PMC7582957, “A Fluorescence Polarization-Based High-Throughput Screen to Identify the First Small-Molecule Modulators of the Human Adenylyltransferase HYPE/FICD” (International Journal of Molecular Sciences, 2020).
